From PMC7618719, “Generation of T cells with reduced off-target cross-reactivities by engineering co-signalling receptors” (Nature Biomedical Engineering, 2026)

Test system: Lck
Test: Lck chemical inhibition assay, CD69 on A-770041-treated c259 TCR-T cells
Type: cell-based, human
Details: c259 TCR-T cells treated 1 h with A-770041, U87 with NY-ESO-1 peptides, 4 h, CD69 and TNFα
Procedure: U87 cells (50,000) in 100 μl of DMEM were seeded per well in a 96-well flat-bottom plate and incubated overnight. T cells were treated with the appropriate concentration of A-770041 for 1 h. The DMEM media were discarded and 50,000 A-770041-treated T cells were added to each well in 200 μl of RPMI media. Cells were incubated for 4 h at 37 ^∘C and 5% CO2.
Cells were stained for 20 min at 4 ^∘C, washed with PBS and analysed using a BD X-20 or a Cytoflex LX flow cytometer (Beckman Couter). Data were analysed using FlowJo v.10, RRID:SCR008520 (BD Biosciences) and GraphPad Prism, RRID:SCR002798 (GraphPad Software).

## COc1cc(-c2nn([C@H]3CC[C@H](N4CCN(C(C)=O)CC4)CC3)c3ncnc(N)c23)ccc1NC(=O)c1cc2ccccc2n1C [A-770041]
  effect of Lck inhibition on T cell ligand discrimination: increases T cell ligand discrimination
